Source: patent publication EP0309120A2, “Atrial hypotensive peptide” (QUEEN'S UNIVERSITY AT KINGSTON, priority 1987, dated 1989)
Ends that are not written are not given here.

How the values were obtained:
[1] = system: antiserum to iso-rANP(1-20) (P2A); experiment: Radioimmunoassay (RIA) with anti-P2A antiserum and 125I-P2A-Y tracer; type: binding, New Zealand white rabbits; settings: antiserum used for the RIA
Text: The procedure was repeated to produce the same 20 amino acid residue fragment with a tyrosine residue attached to the N-terminal serine. The 20-residue peptide (P2A) was mixed with Freund's complete adjuvant and injected subcutaneously into New Zealand white rabbits. After boosting at 5 weeks after the initial injection the rabbits were bled 1 week later. […] Tyrosinated P2A (P2A-Y) was iodinated using the chloramine T method and the iodinated tracer was purified by HPLC on a Waters µBondapak C₁₈ column. For radioimmunossay (RIA) the buffer contained 0.1M NaHPO₄ buffer, pH 7.4, 0.05M NaCl, 0.1% BSA and 0.02% […]. The RIA incubation mixture contained 3-100 pg of P2A in 100 µ l of buffer, 100 µl of diluted antiserum and 100 µl of ¹²⁵I-P2A-Y (approx. 8000 cpm). After incubation overnight at 4°C bound and free iodinated peptide were separated by second antibody precipitation using goat anti-rabbit - globulin. The sensitivity of the assay was 2-3 pg/tube with 50% displacement at 25-30 pg/tube.
The RIA was then used to monitor the purification of the peptide de novo from atrial extracts using gel-filtration and reverse-phase HPLC. The procedure used was essentially the same as the one briefly described above for the purification of ANP, except that the initial extraction and the gel-filtration stages were done in the presence of several protease inhibitors.

[2] = system: bioassay rats; experiment: Bolus injection into anesthetized bioassay rats: urinary and cardiovascular responses; type: in vivo, male Sprague-Dawley rats
Description: Experiments were performed using male Sprague-Dawley rats, ranging in weight from 270-362 g. The rats were anesthetized by an intraperitoneal injection of sodium pentobarbital (70 mg.kg-1; MTC Pharmaceuticals, Hamilton, Ont.). Additional small amounts of anesthetic were administered as required in the course of the experiment. […] After installing a tracheal cannula, a femoral vein was cannulated and a priming infusion of saline (0.9% NaCl) was administered over a 20 min period (1.1 ml); this was followed by a maintenance saline infusion of 1.2 ml.h-1. The femoral artery was then cannulated for blood pressure measurement (Statham pressure transducer, model P23Db). A catheter was also advanced via the right external jugular vein towards the right heart for bolus injections of vehicle, ANF or the atrial peptide of the present invention (AHP). After tying off the penis, the bladder was cannulated for urine collection. Rates were not used or experiments aborted if the urine became bloody. The EKG was recorded for determination of heart rate.
Urine was collected in preweighed vials and volume calculated by weighing. The time for sequential urine collections was 5 min or, increments of 4 min until there was enough urine volume for electrolyte determinations (0.25 ml or 16 drops). Rat kidneys were removed at the termination of the experiments so that urinary excretion measurements could be normalized for total kidney weight. Measurements of NA+ and K+ were obtained using ion specific electrodes and Cl- was obtained by coulometric titration.
Zero time was established by 40-60 mins from the beginning the priming saline infusion. The control measurements were carried out over 20 mins or, until there was sufficient urine collection for electrolyte determinations. A bolus injection of vehicle, rANP(99-126) or iso-rANP(1-46) or iso-rANP(17-46) was then administered into the jugular vein catheter and the catheter immediately cleared of remaining injectate by a secondary bolus of 0.2 ml saline. The rANP(99-126) was obtained from Armand-Frappier, Montreal. Cardiovascular measurements were analyzed at 5 min intervals during control and at 1, 5, 10, 15 and 20 mins following administration of injectate. […] Thus, residues 17-46 of the native peptide represent a functional, as well as structural, homologue of both ANP and BNP. Moreover, it would appear that residues 1-20 of iso-rANP(1-46) are not required for biological activity. […] It required twice the dose of iso-rANP(17-46) (1.5 nanomol) to produce equivalent average decreases in mean arterial blood pressure and heart rate as rANP(99-126) (0.7 nanomol). […] Variability of response of assay rats to injected peptides is evident from the rather larger variances (SEM).

[3] = system: Aortic rings (thoracic aortae); experiment: Vasorelaxant activity on phenylephrine-contracted aortic rings; set-up: species or system New Zealand White rabbits
Description: Aortic rings (3-4mm) were cut from the thoracic aortae of New Zealand White rabbits. The rings were suspended in a 10 ml tissue bath containing Kreb's Ringer Solution, pH 7.4 at 37°C. The rings were maintained at about 70% of maximal contraction with phenylephrine in doses ranging from 1 x 10⁻⁶ to 5 x 10⁻⁸M. Vasorelaxant activity or peptides was tested by adding various concentrations of peptide to the bath.

| Substance | cross-reaction with antiserum [1] | effect in increasing urinary volume as well as Na+, K+ and Cl- excretion ([2]; 3.0 nanomol, four-fold larger dose than rANP(99-126), compared with rANP(99-126)) | potency compared with rANP(99-126) ([2]; as shown in Table 1, result in words) | dose to produce equivalent average decreases in mean arterial blood pressure and heart rate ([2]; bolus into jugular vein catheter) | urinary responses ([2]; dose 0.9 nmol) | additional effect on cardiovascular responses (mean arterial blood pressure, heart rate) ([2]; dose increased to 3.0 nanomol) | diuretic, natriuretic, hypotensive and bradycardic responses ([2]; injected into bioassay rats, result in words) | smooth muscle vaso-relaxant activity ([3]; rabbit aortic rings at about 70% of maximal contraction with phenylephrine, result in words) | higher dose required to produce the same relaxation obtained by 50 ng of rANP(99-126) ([3]; rabbit aortic rings, relative to 50 ng of rANP(99-126)) | potency compared with ANP(99-126) ([3]; rabbit aortic rings, result in words) |
| --- | --- | --- | --- | --- | --- | --- | --- | --- | --- | --- |
| ANP: atrial natriuretic peptide, length not specified at this place | did not cross-react |  |  |  |  |  |  |  |  |  |
| MAHSSSCFGEKIDRIGAVSRLGCDILLIAQ (cysteine pairing not given here) [iso-rANP(17-46), chemically synthesized peptide corresponding to residues 17-46 of iso-rANP(1-46)] |  | somewhat lesser effect | somewhat less than rANP(99-126) | 1.5 nmol | only a small effect in most rats | no additional effect | elicited diuretic, natriuretic, hypotensive and bradycardic responses qualitatively similar to both the native peptide and rANP | showed smooth muscle vaso-relaxant activity | 20 fold | less potent |
